Data taken from PubChem BioAssay (NCI).
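Cells were grown in 96-well plates and exposed to each compound for 48 hours at five concentrations; endpoints were interpolated linearly between bracketing concentrations, or set to the highest concentration if not reached. GI50: concentration for 50% inhibition of growth. TGI: concentration producing complete growth inhibition.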

Legend:
Test in all cases: inhibition of tumour cell growth, NCI panel, 48 h
[1] = system: SN12C renal
[2] = system: MOLT-4 leukemia
[3] = system: SNB-19 CNS
[4] = system: OVCAR-4 ovarian
[5] = system: NCI-H23 lung
[6] = system: SK-MEL-5 melanoma
[7] = system: OVCAR-3 ovarian
[8] = system: UO-31 renal
[9] = system: LOX IMVI melanoma
[10] = system: MALME-3M melanoma

## C[C@H](CSC(=O)c1ccccc1)C(=O)N1c2ccccc2C[C@H]1C(=O)O
[1]
  TGI: > 100 µM
[2]
  TGI: > 100 µM
[3]
  TGI: > 100 µM
[4]
  TGI: > 100 µM
[5]
  TGI: > 100 µM
[6]
  TGI: > 100 µM
[7]
  TGI: > 100 µM
[8]
  TGI: > 100 µM

## CC1=NN(C(=O)c2ccc(Cl)cc2)C(=O)/C1=C/c1cccc([N+](=O)[O-])c1
[1]
  TGI: > 100 µM
[3]
  TGI: > 100 µM
[4]
  TGI: > 100 µM
[5]
  TGI: > 100 µM
[6]
  TGI: > 100 µM
[7]
  TGI: > 100 µM
[9]
  TGI: > 100 µM
[8]
  TGI: > 100 µM
[10]
  TGI: > 100 µM

## CN(C)c1ccc(C(N)=O)cn1
[1]
  TGI: > 100 µM
[2]
  TGI: > 100 µM
[3]
  TGI: > 100 µM
[5]
  TGI: > 100 µM
[6]
  TGI: > 100 µM
[7]
  TGI: > 100 µM
[9]
  TGI: > 100 µM
[8]
  TGI: > 100 µM
[10]
  TGI: > 100 µM

## CC(=O)Oc1ccccc1C(=O)C1c2cccc(O)c2C(=O)c2c(O)cccc21
[1]
  TGI: 12.1 µM
[2]
  TGI: 6.01 µM
[3]
  TGI: 24.3 µM
[4]
  TGI: 4.48 µM
[5]
  TGI: 4.33 µM
[6]
  TGI: 2.4 µM
[9]
  TGI: 4.19 µM
[8]
  TGI: 1.68 µM
[10]
  TGI: 4.01 µM

## O=[N+]([O-])c1nccn1CC1OC(n2ccnc2[N+](=O)[O-])C(O)C(O)C1O (configuration not stated)
[2]
  TGI: > 100 µM
[3]
  TGI: > 100 µM
[5]
  TGI: > 100 µM
[6]
  TGI: > 100 µM
[8]
  TGI: > 100 µM
[10]
  TGI: > 100 µM

## CN(C)CCNC(=O)c1ccc(Cl)c2c(Nc3ccc(S(N)(=O)=O)cc3)c3ccccc3nc12
[1]
  TGI: 10.1 µM
[3]
  TGI: 14.5 µM
[4]
  TGI: 6.22 µM
[5]
  TGI: 11.6 µM
[6]
  TGI: 11.8 µM
[9]
  TGI: 2.35 µM
[8]
  TGI: 11 µM
[10]
  TGI: 12.5 µM

## COc1ccc(-c2ccc(/C=N/n3c(COc4ccc(Cl)cc4)n[nH]c3=S)o2)c([N+](=O)[O-])c1
[1]
  GI50: 19.9 µM
  TGI: 53.4 µM
[2]
  GI50: 16.5 µM
  TGI: 75.4 µM
[3]
  GI50: 20.1 µM
  TGI: 53.6 µM
[4]
  GI50: 2.87 µM
  TGI: 18.2 µM
[5]
  GI50: 13.8 µM
  TGI: 33.7 µM
[8]
  GI50: 33.5 µM
  TGI: > 100 µM
[10]
  GI50: 14.1 µM
  TGI: 37 µM

## N#Cc1ccccc1NC(=O)c1ccccc1
[1]
  TGI: > 100 µM
[3]
  TGI: > 100 µM
[4]
  TGI: > 100 µM
[5]
  TGI: > 100 µM
[6]
  TGI: > 100 µM
[7]
  TGI: > 100 µM
[9]
  TGI: > 100 µM
[10]
  TGI: > 100 µM

## N/N=C(\Cc1ccccc1)NN=C(N)N
[1]
  TGI: > 100 µM
[2]
  TGI: > 100 µM
[4]
  TGI: > 100 µM
[5]
  TGI: > 100 µM
[6]
  TGI: > 100 µM
[9]
  TGI: > 100 µM
[8]
  TGI: > 100 µM
[10]
  TGI: > 100 µM

## CC(=O)c1cccc(NCn2nnc3ccccc32)c1
[1]
  TGI: > 100 µM
[2]
  TGI: > 100 µM
[3]
  TGI: > 100 µM
[4]
  TGI: > 100 µM
[5]
  TGI: > 100 µM
[7]
  TGI: > 100 µM
[9]
  TGI: > 100 µM
[8]
  TGI: > 100 µM
[10]
  TGI: > 100 µM

## COc1ccc2cc3n(c2c1)CCc1cc(OC)c(OC)cc1-3
[1]
  TGI: > 100 µM
[2]
  TGI: > 100 µM
[3]
  TGI: > 100 µM
[4]
  TGI: > 100 µM
[5]
  TGI: > 100 µM
[9]
  TGI: > 100 µM
[8]
  TGI: > 100 µM

## CS(=O)(=O)Nc1cc(-c2ccc3ncnc(Nc4ccc5c(cnn5Cc5ccc(F)cc5)c4)c3c2)cnc1Cl
[1]
  GI50: 1.66 µM
  TGI: 19.3 µM
[2]
  GI50: 0.801 µM
  TGI: 3.89 µM
[3]
  GI50: 1.81 µM
  TGI: 12.2 µM
[4]
  GI50: 3.09 µM
  TGI: 44 µM
[5]
  GI50: 1.43 µM
  TGI: 5.43 µM
[6]
  GI50: 1.52 µM
  TGI: 2.89 µM
[7]
  GI50: 1.1 µM
  TGI: 3.3 µM
[9]
  GI50: 1.18 µM
  TGI: 3.27 µM
[10]
  GI50: 0.441 µM
  TGI: 2.92 µM

## O=c1[nH]cnc2c(C3OC(CO)C(O)C3O)scc12 (configuration not stated)
[1]
  GI50: > 100 µM
  TGI: > 100 µM
[3]
  GI50: > 100 µM
  TGI: > 100 µM
[4]
  GI50: > 100 µM
  TGI: > 100 µM
[5]
  GI50: > 100 µM
  TGI: > 100 µM
[6]
  GI50: > 100 µM
  TGI: > 100 µM
[7]
  GI50: > 100 µM
  TGI: > 100 µM
[9]
  GI50: 43.9 µM
  TGI: > 100 µM
[8]
  GI50: 51.4 µM
  TGI: > 100 µM
[10]
  GI50: 13.8 µM
  TGI: > 100 µM

## [O-]c1on[n+]2c1c(Nc1ccc(Cl)cc1)nc1ccccc12
[1]
  TGI: > 100 µM
[2]
  TGI: > 100 µM
[3]
  TGI: > 100 µM
[4]
  TGI: > 100 µM
[5]
  TGI: > 100 µM
[6]
  TGI: > 100 µM
[7]
  TGI: > 100 µM
[9]
  TGI: > 100 µM
[8]
  TGI: > 100 µM

## O=C1CCC2(c3ccccc3)Nc3cc(Cl)ccc3N12 (configuration not stated)
[1]
  TGI: > 100 µM
[2]
  TGI: 57.9 µM
[4]
  TGI: > 100 µM
[5]
  TGI: 60.7 µM
[6]
  TGI: 32.4 µM
[7]
  TGI: 62.8 µM
[9]
  TGI: > 100 µM
[8]
  TGI: 63.3 µM
[10]
  TGI: 75.5 µM

## N#CC1C(N)=NNC12Nc1ccccc1N2 (configuration not stated)
[3]
  GI50: 17.8 µM
  TGI: 91 µM
[4]
  GI50: 18 µM
  TGI: 92.3 µM
[6]
  GI50: 4.11 µM
  TGI: 21.2 µM
[7]
  GI50: 3.16 µM
  TGI: 19.4 µM
[9]
  GI50: 26.7 µM
  TGI: > 100 µM
[8]
  GI50: 11.5 µM
  TGI: 84.9 µM

## FC(F)(F)c1ccc2nc(Nc3ccc(Cl)c(Cl)c3)c(-c3ccccc3)nc2c1
[1]
  TGI: > 100 µM
[2]
  TGI: > 100 µM
[3]
  TGI: > 100 µM
[5]
  TGI: > 100 µM
[7]
  TGI: > 100 µM
[9]
  TGI: > 100 µM
[8]
  TGI: > 100 µM
[10]
  TGI: > 100 µM

## COc1cnc2c(c1)C(=O)c1c-2n(CCCN2CCCC2)c(=O)c2cc(Cl)ccc12
[2]
  GI50: 0.0193 µM
  TGI: 6.23 µM
[3]
  GI50: 1.03 µM
  TGI: 11.7 µM
[4]
  GI50: 1.43 µM
  TGI: 11.2 µM
[5]
  GI50: 0.857 µM
  TGI: 9.16 µM
[6]
  GI50: 2.54 µM
  TGI: 9.48 µM
[9]
  GI50: 0.0423 µM
  TGI: 5.96 µM
[8]
  GI50: 0.599 µM
  TGI: 9.02 µM
[10]
  GI50: 5.9 µM
  TGI: 15.3 µM

## O=c1cccccc1NCCCCCCCCCNc1cccccc1=O
[1]
  TGI: 62.2 µM
[2]
  TGI: 24.9 µM
[3]
  TGI: 88.5 µM
[4]
  TGI: > 100 µM
[5]
  TGI: 74.6 µM
[7]
  TGI: 37.5 µM
[9]
  TGI: 19.1 µM
[8]
  TGI: 41.6 µM
[10]
  TGI: 39.9 µM

## CC1=CC(=O)C(C(C)=Nc2ccccc2Cl)C(=O)O1 (configuration not stated)
[1]
  GI50: > 100 µM
  TGI: > 100 µM
[2]
  GI50: > 100 µM
  TGI: > 100 µM
[3]
  GI50: > 100 µM
  TGI: > 100 µM
[5]
  GI50: > 100 µM
  TGI: > 100 µM
[6]
  GI50: > 100 µM
  TGI: > 100 µM
[7]
  GI50: > 100 µM
  TGI: > 100 µM
[9]
  GI50: > 100 µM
  TGI: > 100 µM
[8]
  GI50: > 100 µM
  TGI: > 100 µM
[10]
  GI50: > 100 µM
  TGI: > 100 µM
